For orientation: logP means the decadic logarithm of the partition coefficient of the neutral form, usually between octanol and water. Higher therefore signals higher lipophilicity.

For data set [1], the system named is Musca domestica. Nature of the data set: Insecticidal activity against Musca domestica Takatsuki in presence of metabolic inhibitor propyl 2-propynyl phenylphosphate. It counts as functional.
Data set [2] has as its system Musca domestica. Nature of the data set: Insecticidal activity against Musca domestica Takatsuki assessed as mortality injected into thorax measured after 24 hrs. It counts as functional.
Data set [3] is described as follows: Octanol-water partition coefficient, log P of the compound. The format is physicochemical.
Data set [4] has as its system Musca domestica. Put plainly: Insecticidal activity against Musca domestica Takatsuki assessed as mortality at 15 ug applied topically. It counts as functional.
Data set [5] concerns Musca domestica. Nature of the data set: Toxicity against Musca domestica Takatsuki assessed as neurological side effects at 1100 ng. It counts as functional, organism-based.

With `O=[N+]([O-])/N=C1\N(Cc2ccc(Cl)nc2)CCN1Cc1ccc2c(c1)OCCOCCOCCOCCOCCO2`, the values for the Activity with Musca domestica [1] and in the data set on Musca domestica [4] were 4.3 ng and 38%, respectively. Further, the LD50 in the data set on Musca domestica [2] was 17 ng. The logP in data set [3] came to 0.28.

Regarding `c1ccc2c(c1)OCCOCCOCCOCCO2`, the Activity result in the data set on Musca domestica [5] was “Not toxic”.

Turning to `c1ccc2c(c1)OCCOCCOCCOCCOCCO2`, the Activity result in the data set on Musca domestica [5] was “Not toxic”.

Regarding `O=[N+]([O-])/N=C1\N(Cc2ccc(Cl)nc2)CCN1Cc1ccc2c(c1)OCCOCCOCCOCCO2`, the Activity was 4.8 ng in the data set on Musca domestica [1] and 44% in the data set on Musca domestica [4]. The LD50 with Musca domestica [2] came to 25 ng. In data set [3], this molecule registered a logP of 0.15.

Turning to `O=[N+]([O-])/N=C1\NCCN1Cc1ccc(Cl)nc1` [IMIDACLOPRID], in the data set with Musca domestica [2], the LD50 turned out to be 84 ng.

The values above are taken from ChEMBL document CHEMBL1136901, “Crown-capped imidacloprid: a novel design and insecticidal activity” (Bioorg Med Chem Lett, 2009).
